In patent US20250177115A1, “COMBINATORIAL THERAPIES INCLUDING IMPLANTABLE DAMPING DEVICES AND THERAPEUTIC AGENTS FOR TREATING A CONDITION AND ASSOCIATED SYSTEMS AND METHODS OF USE” (THE BRAIN PROTECTION COMPANY PTY LTD, priority 2021, published 2025):

Tested on: TAC mice
Test: Cognition (Y Maze, exploratory behaviour)
Type: in vivo
Description: FIG. 24 is a dot plot showing the % alterations in a Y maze in mice with an absorbable suture versus a plain suture, with and without treatment according to some embodiments. Measurement of the number of alternations within the 3 arms of a Y-Maze according to the following formula: % alternation=(total alternations/(total entries−2)×100).
Cognition (Y Maze—exploratory behaviour). Cognition was measured according to the number of behavior alterations within the three (3) arms of a Y Maze, as shown in FIGS. 23-24.

## CCCCCCCCc1ccc(CCC(N)(CO)CO)cc1 [Fingolimod, fingolimod]
Treated absorbable suture group, SEM=3.556, n=7
  mean % alteration in a Y maze: 61.396%
Treated plain suture group, SEM=2.644, n=12
  mean % alteration in a Y maze: 70.296%
